Source: patent publication US20090054392A1, “NAPHTHYLPYRIMIDINE, NAPHTHYLPYRAZINE AND NAPHTHYLPYRIDAZINE ANALOGS AND THEIR USE AS AGONISTS OF THE WNT-BETA-CATENIN CELLULAR MESSAGING SYSTEM” (Wyeth, priority 2007, published 2009)
Like-named read-outs stand apart in the source and are kept apart here.

System: Dkk1-LRP5-TCF-Luciferase
Test: Functional Dkk1-LRP5-TCF-Luciferase Assay in U2OS Cells
Details: for A = MAX FOLD Induction/DMSO CONTROL: maximum fold induction over DMSO control; for fold induction at 2 µM: read-out: B = TCF ACTIVITY/DMSO CONTROL Fold induction @ 2.0 uM, 2.0 uM compound; for fold induction at 20 µM: read-out: C = TCF ACTIVITY/DMSO CONTROL Fold induction @ 20.0 uM, 20.0 uM compound

| EC50 [µM] | B = TCF ACTIVITY/DMSO CONTROL Fold induction @ 2.0 uM (2.0 uM compound) [fold] | A = MAX FOLD Induction/DMSO CONTROL [fold] | EC50 (Homo sapiens, U2OS) [µM] | SMILES | fold induction at 2 µM (Homo sapiens, U2OS) | fold induction at 20 µM (Homo sapiens, U2OS) |
| --- | --- | --- | --- | --- | --- | --- |
| 4 | 1.920 | 5.480 | – | N[C@@H]1[C@H]2CN(c3nccc(-c4ccc5ccccc5c4)n3)C[C@@H]12 | – | – |
| – | – | – | – | CCN(CC)C(=O)N(C)CCN(C)[C@@H]1CCN(c2nccc(-c3ccc4ccccc4c3)n2)C1 [1,1-diethyl-3-methyl-3-[2-(methyl{(3R)-1-[4-(2-naphthyl)pyrimidin-2-yl]pyrrolidin-3-yl}amino)ethyl]urea] | 1.93 | – |
| – | – | – | – | COc1ccccc1-c1ccc2cc(-c3ccnc(N4CCC(CN)CC4)n3)ccc2c1 [1-(1-{4-[6-(2-methoxyphenyl)-2-naphthyl]pyrimidin-2-yl}piperidin-4-yl)methanamine] | 1.88 | – |
| – | – | – | – | NCC1CCN(c2nccc(-c3ccc4cc(-c5cccs5)ccc4c3)n2)CC1 [1-(1-{4-[6-(2-thienyl)-2-naphthyl]pyrimidin-2-yl}piperidin-4-yl)methanamine] | 1.21 | 0.03 |
| – | – | – | – | COc1ccc(-c2ccc3cc(-c4ccnc(N5CCC(CN)CC5)n4)ccc3c2)cc1 [1-(1-{4-[6-(4-methoxyphenyl)-2-naphthyl]pyrimidin-2-yl}piperidin-4-yl)methanamine] | – | 1.9 |
| – | – | – | – | NCC1CCN(c2nccc(-c3ccc4cc(CN5CCOCC5)ccc4c3)n2)CC1 [1-(1-{4-[6-(morpholin-4-ylmethyl)-2-naphthyl]pyrimidin-2-yl}piperidin-4-yl)methanamine] | 1.1 | – |
| – | – | – | – | NCC1CCN(c2nccc(-c3ccc4cc(CN5CCCCC5)ccc4c3)n2)CC1 [1-(1-{4-[6-(piperidin-1-ylmethyl)-2-naphthyl]pyrimidin-2-yl}piperidin-4-yl)methanamine] | 1.4 | – |
| – | – | 1.380 | – | NCC1CCN(C(=O)c2nccc(-c3ccc4ccccc4c3)n2)CC1 [1-(1-{[4-(2-naphthyl)pyrimidin-2-yl]carbonyl}piperidin-4-yl)methanamine] | 0.46 | 1.42 |
| – | – | – | – | NCC1CCN(Cc2nccc(-c3ccc4ccccc4c3)n2)CC1 [1-(1-{[4-(2-naphthyl)pyrimidin-2-yl]methyl}piperidin-4-yl)methanamine] | 1.41 | 1.77 |
| – | – | 1.510 | 5.61 | CS(=O)(=O)N1CCCN(c2nccc(-c3ccc4ccccc4c3)n2)CC1 [1-(methylsulfonyl)-4-[4-(2-naphthyl)pyrimidin-2-yl]-1,4-diazepane] | – | 1.59 |
| – | – | – | 0.46 | NC[C@H]1CC[C@H](Oc2nccc(-c3ccc4ccccc4c3)n2)CC1 [1-(trans-4-{[4-(2-naphthyl)pyrimidin-2-yl]oxy}cyclohexyl)methanamine] | – | – |
| – | – | – | – | c1ccc2cc(-c3ccnc(N4CCC(CN5CCCCCC5)CC4)n3)ccc2c1 [1-({1-[4-(2-naphthyl)pyrimidin-2-yl]piperidin-4-yl}methyl)azepane] | 1.45 | – |
| – | – | – | – | O=C1CCCCN1CC1CCN(c2nccc(-c3ccc4ccccc4c3)n2)CC1 [1-({1-[4-(2-naphthyl)pyrimidin-2-yl]piperidin-4-yl}methyl)piperidin-2-one] | 1.55 | 0.73 |
| – | – | – | – | O=C1CCCN1CC1CCN(c2nccc(-c3ccc4ccccc4c3)n2)CC1 [1-({1-[4-(2-naphthyl)pyrimidin-2-yl]piperidin-4-yl}methyl)pyrrolidin-2-one] | 1.33 | 0.81 |
| – | – | 2.260 | – | c1ccc2cc(-c3ccnc(N4CCC(CN5CCCCCC5)C4)n3)ccc2c1 (stereo not shown) [1-({1-[4-(2-naphthyl)pyrimidin-2-yl]pyrrolidin-3-yl}methyl)azepane] | 2.33 | – |
| – | – | 2.680 | 5.53 | OC1CCN(CC2CCN(c3nccc(-c4ccc5ccccc5c4)n3)C2)CC1 (stereo not shown) [1-({1-[4-(2-naphthyl)pyrimidin-2-yl]pyrrolidin-3-yl}methyl)piperidin-4-ol] | 3.52 | 0.1 |
| – | – | – | 6.85 | O=C1CCCCN1C[C@@H]1CCN(c2nccc(-c3ccc4ccccc4c3)n2)C1 [1-({(3R)-1-[4-(2-naphthyl)pyrimidin-2-yl]pyrrolidin-3-yl}methyl)piperidin-2-one] | 1.14 | 2.33 |
| – | – | 2.000 | – | O=C1CCCCN1C[C@H]1CCN(c2nccc(-c3ccc4ccccc4c3)n2)C1 [1-({(3S)-1-[4-(2-naphthyl)pyrimidin-2-yl]pyrrolidin-3-yl}methyl)piperidin-2-one] | 1.07 | 2.45 |
| – | – | – | – | c1ccc2cc(-c3ccnc(N4CCCNCC4)n3)ccc2c1 [1-[4-(2-naphthyl)pyrimidin-2-yl]-1,4-diazepane] | 1.36 | 0.85 |
| – | – | – | – | O=[N+]([O-])CC1(O)CCN(c2nccc(-c3ccc4ccccc4c3)n2)CC1 [1-[4-(2-naphthyl)pyrimidin-2-yl]-4-(nitromethyl)piperidin-4-ol] | 1.19 | 1.49 |
| – | – | – | – | O=C(N1CCCN(c2nccc(-c3ccc4ccccc4c3)n2)CC1)C(F)(F)F [1-[4-(2-naphthyl)pyrimidin-2-yl]-4-(trifluoroacetyl)-1,4-diazepane] | – | 1.24 |

| EC50 [µM] | B = TCF ACTIVITY/DMSO CONTROL Fold induction @ 2.0 uM (2.0 uM compound) [fold] | A = MAX FOLD Induction/DMSO CONTROL [fold] | EC50 (Homo sapiens, U2OS) [µM] | SMILES | fold induction at 2 µM (Homo sapiens, U2OS) | fold induction at 20 µM (Homo sapiens, U2OS) |
| --- | --- | --- | --- | --- | --- | --- |
| – | – | 2.260 | 28.5 | CCC(=O)N1CCCN(c2nccc(-c3ccc4ccccc4c3)n2)CC1 [1-[4-(2-naphthyl)pyrimidin-2-yl]-4-propionyl-1,4-diazepane] | – | 2.23 |
| – | – | – | – | NC1CCCN(c2nccc(-c3ccc4ccccc4c3)n2)CC1 (stereo not shown) [1-[4-(2-naphthyl)pyrimidin-2-yl]azepan-4-amine] | 1.95 | – |
| – | – | – | – | c1ccc2cc(-c3ccnc(N4CCCCCC4)n3)ccc2c1 [1-[4-(2-naphthyl)pyrimidin-2-yl]azepane] | 1.54 | – |
| – | – | 1.580 | 0.97 | NC1CCN(c2nccc(-c3ccc4ccccc4c3)n2)CC1 [1-[4-(2-naphthyl)pyrimidin-2-yl]piperidin-4-amine] | 2.11 | – |
| – | – | 2.224 | 1.28 | OC1CCN(c2nccc(-c3ccc4ccccc4c3)n2)CC1 [1-[4-(2-naphthyl)pyrimidin-2-yl]piperidin-4-ol] | 1.35 | 0.28 |
| – | – | – | – | O=C1CCN(c2nccc(-c3ccc4ccccc4c3)n2)CC1 [1-[4-(2-naphthyl)pyrimidin-2-yl]piperidin-4-one] | 1.43 | 1.19 |
| – | – | 2.230 | 1.27 | NC(=O)C1CCCN(c2nccc(-c3ccc4ccccc4c3)n2)C1 (stereo not shown) [1-[4-(2-naphthyl)pyrimidin-2-yl]piperidine-3-carboxamide] | 2.17 | 2.7 |
| – | – | – | – | O=CC1CCN(c2nccc(-c3ccc4ccccc4c3)n2)CC1 [1-[4-(2-naphthyl)pyrimidin-2-yl]piperidine-4-carbaldehyde] | 1.51 | 0.25 |
| – | – | 5.015 | 1.07 | N#CC1CCN(c2nccc(-c3ccc4ccccc4c3)n2)CC1 [1-[4-(2-naphthyl)pyrimidin-2-yl]piperidine-4-carbonitrile] | 2.79 | – |
| – | – | 2.070 | – | NC(=S)C1CCN(c2nccc(-c3ccc4ccccc4c3)n2)CC1 [1-[4-(2-naphthyl)pyrimidin-2-yl]piperidine-4-carbothioamide] | 1.74 | 1.99 |
| – | – | 1.660 | – | NC(=O)C1CCN(c2nccc(-c3ccc4ccccc4c3)n2)CC1 [1-[4-(2-naphthyl)pyrimidin-2-yl]piperidine-4-carboxamide] | 1.62 | 1.15 |
| – | – | – | – | O=C(O)C1CCN(c2nccc(-c3ccc4ccccc4c3)n2)CC1 [1-[4-(2-naphthyl)pyrimidin-2-yl]piperidine-4-carboxylic acid] | 1.78 | 0.57 |
| – | – | – | – | Cc1ccc(S(=O)(=O)N2CCCN(c3nccc(-c4ccc5ccccc5c4)n3)CC2)cc1 [1-[(4-methylphenyl)sulfonyl]-4-[4-(2-naphthyl)pyrimidin-2-yl]-1,4-diazepane] | 1.76 | – |
| – | – | – | – | NC[C@H]1CC[C@H](c2nccc(-c3ccc4ccccc4c3)n2)CC1 [1-[trans-4-(4-naphthalen-2-ylpyrimidin-2-yl)cyclohexyl]methanamine] | 3.5 | – |
| – | – | 1.757 | 7.3 | CC(=O)N1CCCN(c2nccc(-c3ccc4ccccc4c3)n2)CC1 [1-acetyl-4-[4-(2-naphthyl)pyrimidin-2-yl]-1,4-diazepane] | 1.46 | 3.21 |
| – | – | – | – | O=C(c1ccccc1)N1CCCN(c2nccc(-c3ccc4ccccc4c3)n2)CC1 [1-benzoyl-4-[4-(2-naphthyl)pyrimidin-2-yl]-1,4-diazepane] | 1.06 | 0.35 |
| – | – | 5.673 | 0.787 | NCC1CCN(c2ccnc(-c3ccc4ccccc4c3)n2)CC1 [1-{1-[2-(2-naphthyl)pyrimidin-4-yl]piperidin-4-yl}methanamine] | 3.22 | 0.003 |
| – | – | 1.820 | – | NCC1CCN(c2nccc(-c3ccc4ccccc4c3)n2)c2ccccc21 (stereo not shown) [1-{1-[4-(2-naphthyl)pyrimidin-2-yl]-1,2,3,4-tetrahydroquinolin-4-yl}methanamine] | – | – |
| – | – | 3.080 | 22.9 | NCC1CN(c2nccc(-c3ccc4ccccc4c3)n2)C1 [1-{1-[4-(2-naphthyl)pyrimidin-2-yl]azetidin-3-yl}methanamine] | 2.56 | 0.71 |
| – | – | – | – | O=c1[nH]c2ccccc2n1C1CCN(c2nccc(-c3ccc4ccccc4c3)n2)CC1 [1-{1-[4-(2-naphthyl)pyrimidin-2-yl]piperidin-4-yl}-1,3-dihydro-2H-benzimidazol-2-one] | 1.03 | 0.01 |
